According to publication PMC10077549 (ACS Omega, 2023):

Target: T1, soybean lipoxygenase LOX-1 (Glycine max, UniProt P08170)
T1 sequence (P08170 1-839): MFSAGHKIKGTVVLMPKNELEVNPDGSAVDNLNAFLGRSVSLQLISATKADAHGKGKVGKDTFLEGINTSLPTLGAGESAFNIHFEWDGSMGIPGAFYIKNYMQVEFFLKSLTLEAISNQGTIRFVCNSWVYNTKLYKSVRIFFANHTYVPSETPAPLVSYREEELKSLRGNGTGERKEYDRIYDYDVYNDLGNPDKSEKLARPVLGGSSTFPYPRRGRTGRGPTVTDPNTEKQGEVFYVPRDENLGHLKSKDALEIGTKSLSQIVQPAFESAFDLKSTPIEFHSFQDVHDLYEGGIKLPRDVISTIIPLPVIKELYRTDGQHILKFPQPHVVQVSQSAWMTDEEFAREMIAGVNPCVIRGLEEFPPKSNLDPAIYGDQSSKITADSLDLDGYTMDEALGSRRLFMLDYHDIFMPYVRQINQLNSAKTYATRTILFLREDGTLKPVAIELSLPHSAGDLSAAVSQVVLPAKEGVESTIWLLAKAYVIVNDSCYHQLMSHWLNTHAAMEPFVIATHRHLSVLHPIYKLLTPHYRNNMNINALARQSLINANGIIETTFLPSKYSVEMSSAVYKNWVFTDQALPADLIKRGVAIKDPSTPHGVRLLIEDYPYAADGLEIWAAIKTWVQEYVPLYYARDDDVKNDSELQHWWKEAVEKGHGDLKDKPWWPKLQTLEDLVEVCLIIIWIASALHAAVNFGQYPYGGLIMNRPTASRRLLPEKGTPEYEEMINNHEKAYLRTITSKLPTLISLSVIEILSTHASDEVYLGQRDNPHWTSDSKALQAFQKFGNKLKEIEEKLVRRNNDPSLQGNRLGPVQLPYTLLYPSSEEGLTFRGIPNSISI
Assay type: biochemical

| IC50 [µM] | Compound |
| --- | --- |
| 22.5 | NNC(=S)N/N=C/c1ccccc1 [DKI5, (E)-N′-benzylidenehydrazinecarbothiohydrazide] |
| 19 | SC1=NC(c2ccccc2)=CC(c2ccccc2)N1 (centres unmarked) [KKII5, 4,6-diphenyl-3,4-dihydropyrimidine-2(1H)-thione] |
